# Measured values from paper PMC5397059, “Design, synthesis and structure-activity relationship study of wollamide B; a new potential anti TB agent” (PLoS ONE, 2017).
# Read-outs that look alike come from different tables or passages of the source.
# Settings: amide bond, 18-membered ring, HATU/HOBt/DIEA
structure (smiles),measurement,setting,value
CC[C@H](C)[C@@H]1NC(=O)[C@@H](CC(C)C)NC(=O)[C@H](CC(C)C)NC(=O)[C@H](Cc2cn(C(=O)OC(C)(C)C)c3ccccc23)NC(=O)[C@@H](CCCNC(=N)NS(=O)(=O)c2c(C)c(C)c3c(c2C)CC(C)(C)O3)NC(=O)[C@H](CC(=O)NC(c2ccccc2)(c2ccccc2)c2ccccc2)NC1=O [cyclo (D-Leu-Ile-Asn(Trt)-D-Arg (Pbf)-Trp(Boc)-Leu)],"ring closure, isolated yield",from H-dLeu-Ile-Asn(Trt)-dArg(Pbf)-Trp(Boc)-Leu-OH,70%
CC[C@H](C)[C@@H]1NC(=O)[C@@H](CC(C)C)NC(=O)[C@H](CC(C)C)NC(=O)[C@H](Cc2cn(C(=O)OC(C)(C)C)c3ccccc23)NC(=O)[C@@H](CCCNC(=O)OC(C)(C)C)NC(=O)[C@H](CC(=O)NC(c2ccccc2)(c2ccccc2)c2ccccc2)NC1=O [cyclo (D-Leu-Ile-Asn(Trt)-D-Orn(Boc)-Trp(Boc)-Leu)],"ring closure, isolated yield",from H-dLeu-Ile-Asn(Trt)-dOrn(Boc)-Trp(Boc)-Leu-OH,52%
CSCC[C@@H]1NC(=O)[C@@H](CC(C)C)NC(=O)[C@H](CC(C)C)NC(=O)[C@H](Cc2cn(C(=O)OC(C)(C)C)c3ccccc23)NC(=O)[C@@H](CCCNC(=O)OC(C)(C)C)NC(=O)[C@H](CC(=O)NC(c2ccccc2)(c2ccccc2)c2ccccc2)NC1=O [cyclo (D-Leu-Met-Asn(Trt)-D-Orn(Boc)-Trp(Boc)-Leu)],"ring closure, isolated yield",from H-dLeu-Met-Asn(Trt)-dOrn(Boc)-Trp(Boc)-Leu-OH,40%
CC(C)C[C@@H]1NC(=O)[C@H](Cc2cn(C(=O)OC(C)(C)C)c3ccccc23)NC(=O)[C@@H](CCCNC(=O)OC(C)(C)C)NC(=O)[C@H](CC(=O)NC(c2ccccc2)(c2ccccc2)c2ccccc2)NC(=O)[C@H](C(C)C)NC(=O)[C@@H](CC(C)C)NC1=O [cyclo (Trp (Boc)-D-Orn(Boc)-Asn(Trt)-Val-D-Leu-Leu)],"ring closure, isolated yield",from H-dLeu-Val-Asn(Trt)-dOrn(Boc)-Trp(Boc)-Leu-OH,68%
CC(C)C[C@H]1NC(=O)[C@H](CC(C)C)N(C)C(=O)[C@H](Cc2cn(C(=O)OC(C)(C)C)c3ccccc23)NC(=O)[C@@H](CCCNC(=O)OC(C)(C)C)NC(=O)[C@H](CC(=O)NC(c2ccccc2)(c2ccccc2)c2ccccc2)NC(=O)[C@H](C(C)C)N(C)C1=O [cyclo (Trp(Boc)-N-Me-Leu-D-Leu-N-Me-Val-Asn(Trt)-D-Orn(Boc))],"ring closure, isolated yield",from H-Trp(Boc)-MeLeu-dLeu-MeVal-Asn(Trt)-dOrn(Boc)-OH,73%
CC(C)C[C@@H]1NC(=O)[C@H](C)NC(=O)[C@@H](CCCNC(=O)OC(C)(C)C)NC(=O)[C@H](CC(=O)NC(c2ccccc2)(c2ccccc2)c2ccccc2)NC(=O)[C@H](C(C)C)NC(=O)[C@@H](CC(C)C)NC1=O [cyclo(Ala-D-Orn (Boc)-Asn(Trt)-Val-D-Leu-Leu)],"ring closure, isolated yield",from H-dLeu-Val-Asn(Trt)-dOrn(Boc)-Ala-Leu-OH,43%
CC(C)C[C@H]1NC(=O)[C@@H](Cc2ccc(Cl)cc2)NC(=O)[C@H](Cc2cn(C(=O)OC(C)(C)C)c3ccccc23)NC(=O)[C@@H](CCCNC(=O)OC(C)(C)C)NC(=O)[C@H](CC(=O)NC(c2ccccc2)(c2ccccc2)c2ccccc2)NC(=O)[C@H](C(C)C)NC1=O [cyclo(Asn(Trt)-D-Orn(Boc)-Trp(Boc)-D-Phe(4-Cl)-D-Leu-Val)],"ring closure, isolated yield",from H-Asn(Trt)-dOrn(Boc)-Trp(Boc)-dPhe(4-Cl)-dLeu-Val-OH,54%
CC[C@H](C)[C@@H]1NC(=O)[C@H](Cc2cn(C(=O)OC(C)(C)C)c3ccccc23)NC(=O)[C@@H](CCCNC(=O)OC(C)(C)C)NC(=O)[C@H](CC(=O)NC(c2ccccc2)(c2ccccc2)c2ccccc2)NC(=O)[C@H](C(C)C)NC(=O)[C@@H](CC(C)C)NC1=O [cyclo(Asn(Trt)-D-Orn(Boc)-Trp(Boc)-Ile-D-Leu-Val)],"ring closure, isolated yield",from H-Asn(Trt)-dOrn(Boc)-Trp(Boc)-Ile-dLeu-Val-OH,47%
CC[C@H](C)[C@@H]1NC(=O)[C@H](CC(C)C)NC(=O)[C@H](Cc2cn(C(=O)OC(C)(C)C)c3ccccc23)NC(=O)[C@@H](CCCNC(=O)OC(C)(C)C)NC(=O)[C@H](CC(=O)NC(c2ccccc2)(c2ccccc2)c2ccccc2)NC(=O)[C@H](C(C)C)NC1=O [cyclo(Asn(Trt)-D-Orn(Boc)-Trp(Boc)-Leu-Ile-Val)],"ring closure, isolated yield",from H-Asn(Trt)-dOrn(Boc)-Trp(Boc)-Leu-Ile-Val-OH,47%
CC[C@H](C)[C@@H]1NC(=O)[C@H]([C@@H](C)CC)NC(=O)[C@@H](CC(C)C)NC(=O)[C@H](CC(C)C)NC(=O)[C@H](Cc2cn(C(=O)OC(C)(C)C)c3ccccc23)NC(=O)[C@@H](CCCNC(=O)OC(C)(C)C)NC1=O [cyclo(D-Leu-Ile-Ile-D-Orn(Boc)-Trp(Boc)-Leu)],"ring closure, isolated yield",from H-dLeu-Ile-Ile-dOrn(Boc)-Trp(Boc)-Leu-OH,54%
CC(C)C[C@@H]1NC(=O)[C@H](Cc2cn(C(=O)OC(C)(C)C)c3ccccc23)NC(=O)[C@@H](CCCNC(=O)OC(C)(C)C)NC(=O)[C@H](CC(=O)NC(c2ccccc2)(c2ccccc2)c2ccccc2)NC(=O)[C@H](C(C)C)N(C)C(=O)[C@@H](CC(C)C)NC1=O [cyclo(D-Leu-N-Me-Val-Asn(Trt)-D-Orn(Boc)-Trp(Boc)-Leu)],"ring closure, isolated yield",from H-dLeu-MeVal-Asn(Trt)-dOrn(Boc)-Trp(Boc)-Leu-OH,60%
COc1ccc(C[C@@H]2NC(=O)[C@@H](CCCNC(=O)OC(C)(C)C)NC(=O)[C@H](CC(=O)NC(c3ccccc3)(c3ccccc3)c3ccccc3)NC(=O)[C@H](C(C)C)NC(=O)[C@@H](CC(C)C)NC(=O)[C@H](CC(C)C)NC2=O)cc1 [cyclo(D-Leu-Val-Asn(Trt)-D-Orn(Boc)-Phe(4-OMe)-Leu)],"ring closure, isolated yield",from H-dLeu-Val-Asn(Trt)-dOrn(Boc)-Phe(4-OMe)-Leu-OH,41%
CC(C)C[C@@H]1NC(=O)[C@H](Cc2cn(C(=O)OC(C)(C)C)c3ccccc23)NC(=O)[C@@H](CCCNC(=O)OC(C)(C)C)NC(=O)[C@@H](CCCNC(=O)OC(C)(C)C)NC(=O)[C@H](C(C)C)NC(=O)[C@@H](CC(C)C)NC1=O [cyclo(D-Leu-Val-D-Orn(Boc)-D-Orn(Boc)-Trp(Boc)-Leu)],"ring closure, isolated yield",from H-dLeu-Val-dOrn(Boc)-dOrn(Boc)-Trp(Boc)-Leu-OH,40%
CC[C@H](C)[C@@H]1NC(=O)[C@@H](Cc2ccc(Cl)cc2)NC(=O)[C@H](CC(C)C)NC(=O)[C@H](Cc2cn(C(=O)OC(C)(C)C)c3ccccc23)NC(=O)[C@@H](CCCNC(=O)OC(C)(C)C)NC(=O)[C@@H](CCCNC(=O)OC(C)(C)C)NC1=O [cyclo(D-Phe (4-Cl)-Ile-D-Orn(Boc)-D-Orn(Boc)-Trp(Boc)-Leu)],"ring closure, isolated yield",from H-dPhe(4-Cl)-Ile-dOrn(Boc)-dOrn(Boc)-Trp(Boc)-Leu-OH,55%
CC(C)C[C@@H]1NC(=O)[C@H](Cc2cn(C(=O)OC(C)(C)C)c3ccccc23)NC(=O)[C@@H](CCCNC(=O)OC(C)(C)C)NC(=O)[C@H](CC(=O)NC(c2ccccc2)(c2ccccc2)c2ccccc2)NC(=O)[C@H](C(C)C)NC(=O)[C@@H](Cc2ccc(Cl)cc2)NC1=O [cyclo(D-Phe(4-Cl)-Val-Asn(Trt)-D-Orn(Boc)-Trp(Boc)-Leu)],"ring closure, isolated yield",from H-dPhe(4-Cl)-Val-Asn(Trt)-dOrn(Boc)-Trp(Boc)-Leu-OH,53%
CC(C)C[C@@H]1NC(=O)[C@@H](CC(C)C)NC(=O)[C@H](C(C)C)NC(=O)[C@H](CC(=O)NC(c2ccccc2)(c2ccccc2)c2ccccc2)NC(=O)[C@@H](CCCNC(=O)OC(C)(C)C)NC(=O)[C@H](Cc2cn(C(=O)OC(C)(C)C)c3ccccc23)NC1=O [cyclo(Trp (Boc)-D-Orn (Boc)-Asn(Trt)-Val-D-Leu-Leu)],"ring closure, isolated yield","from H-Trp(Boc)-dOrn(Boc)-Asn(Trt)-Val-dLeu-Leu-OH, DMF, 1.0 mM",50%
CC(C)C[C@H]1NC(=O)[C@H](C)NC(=O)[C@H](Cc2cn(C(=O)OC(C)(C)C)c3ccccc23)NC(=O)[C@@H](CCCNC(=O)OC(C)(C)C)NC(=O)[C@H](CC(=O)NC(c2ccccc2)(c2ccccc2)c2ccccc2)NC(=O)[C@H](C(C)C)NC1=O [cyclo(Trp (Boc)-D-Orn(Boc)-Asn(Trt)-Val-D-Leu-Ala)],"ring closure, isolated yield",from H-dLeu-Val-Asn(Trt)-dOrn(Boc)-Trp(Boc)-Ala-OH,45%
CC(C)C[C@@H]1NC(=O)[C@H](Cc2cn(C(=O)OC(C)(C)C)c3ccccc23)NC(=O)[C@@H](CCCNC(=O)OC(C)(C)C)NC(=O)[C@H](C)NC(=O)[C@H](C(C)C)NC(=O)[C@@H](CC(C)C)NC1=O [cyclo(Trp(Boc)-D-Orn(Boc)-Ala-Val-D-Leu-Leu)],"ring closure, isolated yield",from H-dLeu-Val-Ala-dOrn(Boc)-Trp(Boc)-Leu-OH,56%
CC(C)C[C@@H]1NC(=O)[C@H](Cc2cn(C(=O)OC(C)(C)C)c3ccccc23)NC(=O)[C@@H](CCCNC(=O)OC(C)(C)C)NC(=O)[C@H](CC(=O)NC(c2ccccc2)(c2ccccc2)c2ccccc2)NC(=O)[C@H](C)NC(=O)[C@@H](CC(C)C)NC1=O [cyclo(Trp(Boc)-D-Orn(Boc)-Asn(Trt)-Ala-D-Leu-Leu)],"ring closure, isolated yield",from H-dLeu-Ala-Asn(Trt)-dOrn(Boc)-Trp(Boc)-Leu-OH,56%
CC(C)C[C@@H]1NC(=O)[C@H](Cc2cn(C(=O)OC(C)(C)C)c3ccccc23)NC(=O)[C@@H](CCCNC(=O)OC(C)(C)C)NC(=O)[C@H](CC(=O)NC(c2ccccc2)(c2ccccc2)c2ccccc2)NC(=O)[C@H](C(C)C)NC(=O)[C@@H](C)NC1=O [cyclo(Trp(Boc)-D-Orn(Boc)-Asn(Trt)-Val-D-Ala-Leu)],"ring closure, isolated yield",from H-dAla-Val-Asn(Trt)-dOrn(Boc)-Trp(Boc)-Leu-OH,64%
CC[C@H](C)[C@@H]1NC(=O)[C@@H](CC(C)C)NC(=O)[C@H](CC(C)C)NC(=O)[C@H](Cc2cn(C(=O)OC(C)(C)C)c3ccccc23)NC(=O)[C@@H](CCCNC(=O)OC(C)(C)C)NC(=O)[C@H](COC(C)(C)C)NC1=O [cyclo(Trp(Boc)-Leu-D-Leu-Ile-Ser(tBu)-D-Orn(Boc))],"ring closure, isolated yield",from H-Trp(Boc)-Leu-dLeu-Ile-Ser(tBu)-dOrn(Boc)-OH,68%
